Measured values from US20100311674A1, “PHARMACEUTICAL COMPOSITIONS WITH A MECHANISM OF MULTI-TARGET RECEPTOR RETROACTION FOR TREATING DEPRESSION” (Yu-Fen Chi, priority 2007, published 2010).

Legend:
Type in all cases: in vivo
ICR mice [1] = assay: Resetpine-induced mouse body temperature decrease experiment (Experiment 2)
From the text: 2.1 Experimental animals: ICR mice, male, 22.0±2 g of body weight, secondary, are provided by the Experimental Animal Science Department of Capital Medical University, Beijing.
2.2 Experiment pharmaceuticals: The pharmaceutical of Embodiment 1 is provided by Beijing Wonner Biotech. Ltd. Co., Paroxetine (Paxil) is the product of Thong Mei Tianjin Smith Kline pharmaceuticals Co. Ltd., and Resetpine is the product of Guangdong BangMin Pharmaceutical Co., Ltd.
2.4 Dose designs: 1. High dose of Embodiment 1 (80 mg/kg/d); 2. middle dose of Embodiment 1 (40 mg/kg/d); and 3. low dose of Embodiment 1 (20 mg/kg/d).
2.5.1 Group division and administration of drug: The mice are grouped randomly, and 10 mice are in each group. 1. High dose of Embodiment 1 (80 mg/kg, P.O., administered for 7 days); 2. middle dose of Embodiment 1 (40 mg/kg, P.O., administered for 7 days); 3. low dose of Embodiment 1 (20 mg/kg, P.O., administered for 7 days); 4.
2.5.2 Experimental method: After 1 hour of the last administration of drug on the eighth day, the mouse's anal temperature is determined. […] After 4 hours of injecting Resetpine, the mouse's anal temperature is determined once again. […]
2.5.3 Statistic calculation: The experimental data are represented as X±SD, and the experimental result is calculated as ANOVA by SPSS 11.5 statistic software.

[2] = system: rat olfactory bulb lesion model; assay: Step through test (passive avoidance) of the rat olfactory bulb lesion model (Experiment 7); settings: 2 mg/kg/d into the stomach, 24 days
Procedure: Olfactory bulb lesion model: Health Wistar male rats, secondary, 330±20 g of body weight, are purchased from Beijing Vital River Experimental Animal Technology Ltd. Co. (The quality certificate number: SCXK (JING) 2002-2003).
The above pharmaceuticals are prepared with 0.5% of sodium carboxymethylcellulose (CMC-Na) for feeding into the stomach. Benzylpenicillin sodium for injection is the product of North China Pharmaceutical Huasheng Co. Ltd. (Lot: S0511204), and norepinephrine (NE) and 5-hydrotryptamine (5-HT) standards are the products of Sigma Co. Other reagents are all marketed.
7.4.1 Group division and administration of drug: The rats are grouped randomly into 6 groups. 1. […]
7.5.2 Passive avoidance experiment (Step-through test): The step through box is configured by the light chamber and the dark chamber, and a channel is linked between the bright chamber and the dark chamber for mouse entrance and exit. […] The time that the rat enters into for the first time is recorded (electric-shocking latent period), and the time thereof is the learning record. […]
7.6 Statistic calculation: The experimental data are represented as X+SD, and the experimental result is calculated as ANOVA by SPSS 11.5 statistic software.

ICR mice [3] = assay: Mouse swimming by compulsion experiment (Experiment 10)
Procedure: 10.1 Experiment pharmaceuticals: The pharmaceutical of Embodiment 5 is provided by Beijing Wonner Biotech. […] Above-mentioned pharmaceuticals are prepared with physiological saline for feeding into the stomach. 10.2 Experimental animals: ICR mice, male, 20.0±1 g of body weight, secondary, are provided by the Experimental Animal Science Department of Capital Medical University, Beijing. The quality certificate number of mice is SCXK (JING) 2006-2008. 10.4 Experimental method: The mouse group and the administration of drugs are like the mouse tail-hanging experiment. The experiment is proceeded in tested mouse in each group after 1 hour of the administration of drug. The mouse is trained to swim for 15 minutes before the experiment and on the eighth day. After 24 hours, the experiment is performed. The mouse is placed in the glass tank having 10 cm of the water depth, 14 cm of the diameter and at 25° C. of the water temperature. The accumulative time of non-movement of the mouse in the water for the last 5 minutes is recorded. 10.5 Statistic calculation: The experimental data are represented as X+SD, and the experimental result is calculated as one-way ANOVA by SPSS 11.5 statistic software.

Fc1ccc([C@@H]2CCNC[C@H]2COc2ccc3c(c2)OCO3)cc1 [Paroxetine]
Decreased temperature (ICR mice [1]; 3 mg/kg P.O. 7 days, 4 h after Resetpine 2 mg/kg i.p.): 2.38 ± 0.69 °C
Effect on reduced body temperature induced by Resetpine (in words) (ICR mice [1]; high, middle and low doses of Embodiment 1, Paroxetine): decrease the reduced body temperature induced by Resetpine
Latent period of the 1st day ([2]; learning record): 181.87 ± 90.54 s
Latent period of the 2nd day ([2]; memory record): 265.00 ± 65.39 s
Time of non-movement (ICR mice [3]; 3 mg/kg/d into the stomach, 1 h after dose, water 25° C., last 5 minutes): 57.80 ± 38.07 s
Effect on accumulative time of non-movement, swimming by compulsion (in words) (ICR mice [3]; high, middle and low doses of Embodiment 5, Paroxetine): obviously decrease the accumulative time of non-movement
